According to patent US20230355586A1, “Application of Valdecoxib in preparation of medications for preventing and treating glaucoma” (Central South University, priority 2022, published 2023):
“Also recorded” adds a separate entry of the source.

Assays:
R28 cells [1] = assay: Cell death of R28 cells pretreated with CCT020312; type: cell-based, rat; conditions: R28 cells pretreated with different concentrations of CCT020312
PERK-ATF4-CHOP pathway [2] = assay: Western blot of ER stress, PERK-ATF4-CHOP pathway and apoptosis proteins in R28 OGD/R model; type: cell-based, rat; conditions: R28 cells
[3] = system: retina / RGCs (retinal ganglion cells); assay: HE staining of retina in acute high intraocular pressure (aHIOP) retinal I/R model; type: in vivo, SD (Sprague-Dawley) rats; conditions: rat I/R model, 3 days post-injury, intravitreal injection
Method: (§1) Through animal ethics, cell culture, animal selection, reagent and antibody information, anterior chamber compression rat model is established, R28 cell OGD/R (oxygen-glucose deprivation/reoxygenation) model is established; HE (hematoxylin-eosin) staining, apoptosis by TUNEL (TdT-mediated dUTP Nick-End Labeling) detection, cell viability by CCK8 (Cell Counting Kit-8), Western blot assay, Annexin V-FITC/PI flow cytometry, PI/Hoechest staining and immunofluorescence assay are performed.
(§2) In order to evaluate the potential therapeutic prospect of VAL for saving RGCs (retinal ganglion cells) in glaucoma retinal injury, the glaucoma retinal IR is simulated by performing an aHIOP (acute high intraocular pressure) model on SD (Sprague-Dawley) rats. The rats are sacrificed and their eyeballs are removed at 1, 3 or 7 days post-IRI. HE staining is performed to detect the morphological changes in the retina. It is discovered that, compared to the control group, the retinas from 3 and 7 days post-IRI are markedly thinner. Additionally, lost RCGs or their disordered arrangement is observed at 3 and 7 days after IRI when compared with the control retina, as shown in FIGS. 2A and 2B. Next, the valdecoxib's effect on the RGCs in the FR model by HE staining and immunofluorescence. […] A TUNEL assay is performed to clarify whether valdecoxib's protective effect involves the anti-apoptosis mechanism. […]

R28 cells [4] = assay: CCK-8 cell viability in R28 OGD/R model; type: cell-based, rat; conditions: 2 h post-OGD/R, vs. OGD/R group
Method: (§3) Through animal ethics, cell culture, animal selection, reagent and antibody information, anterior chamber compression rat model is established, […] cell OGD/R (oxygen-glucose deprivation/reoxygenation) model is established; HE (hematoxylin-eosin) staining, apoptosis by TUNEL (TdT-mediated dUTP Nick-End Labeling) detection, cell viability by CCK8 (Cell Counting Kit-8), Western blot assay, Annexin V-FITC/PI flow cytometry, PI/Hoechest staining and immunofluorescence assay are performed. The cell death rate at multiple time points with the OGD/R model is detected using PI staining. PI-positive cells are identified as dead cells. The proportion of PI-positive cells at multiple time points are calculated. […] To identify whether the valdecoxib's effect involved an anti-apoptosis mechanism, FCM (flow cytometry) is performed, and a further analysis indicates both that OGD/R induced cell apoptosis and the valdecoxib decreases the cell apoptosis rate, as shown in FIGS. 1E-1H.

R28 cells [5] = assay: Annexin V-FITC/PI flow cytometry apoptosis in R28 OGD/R model; type: cell-based, rat; conditions: vs. OGD/R group
Method: as §3

PERK-ATF4-CHOP pathway [6] = assay: Western blot of retina lysates in retinal I/R model; type: in vivo, rats; conditions: rat retina
Method: as §1, with “R28” left out, “performed. […] The expression levels of the apoptosis-related proteins are examined in the control, I/R, I/R+DMSO and I/R+valdecoxib groups. […] The expression levels of p-PERK, cleaved caspase 3 and GRP78 in RGCs are evaluated by immunofluorescence.” for “performed.”

[7] = system: RGCs (retinal ganglion cells); assay: TUNEL/RBPMS apoptosis assay of retina in aHIOP retinal I/R model; type: in vivo, SD (Sprague-Dawley) rats; conditions: rat I/R model, compared to the I/R group
Method: as §1, §2

[8] = I/R, pretreated with valdecoxib

CCN(CC)CCC(=O)N1N=C(c2c(-c3ccccc3)c3cc(Br)ccc3[nH]c2=O)CC1c1ccc(Br)cc1 (centres unmarked) [CCT020312]
cell death (R28 cells [1]): no significant cell death
bax expression level (Western blot) (PERK-ATF4-CHOP pathway [2]; CCT020312 pre-treated group): consistent with those of the PERK-ATF4-CHOP pathway proteins
cleaved caspase 3 expression level (Western blot) (PERK-ATF4-CHOP pathway [2]; CCT020312 pre-treated group): consistent with those of the PERK-ATF4-CHOP pathway proteins
expression of markers of ER stress and the PERK-ATF4-CHOP pathway (Western blot) (PERK-ATF4-CHOP pathway [2]; valdecoxib pretreatment prior to CCT020312, vs. OGD/R+VAL): reverses the valdecoxib's effects, increasing the expression

Cc1onc(-c2ccccc2)c1-c1ccc(S(N)(=O)=O)cc1 [valdecoxib]
RGCs' survival rate [3]: significantly increases
retinal thickness (HE staining) [3]: significantly increases
cell survival rate (CCK-8) (R28 cells [4]; 1 μmol/L): significantly elevates
cell survival rate (CCK-8) (R28 cells [4]; 1 μmol/L, listed as VAL): significant increase
cell survival rate (CCK-8) (R28 cells [4]; 5 μmol/L): significantly elevates
cell survival rate (CCK-8) (R28 cells [4]; 5 μmol/L, listed as VAL): significant increase
cell apoptosis rate (flow cytometry) (R28 cells [5]): decreases
bax expression (Western blot) (PERK-ATF4-CHOP pathway [6]; I/R injury): decreases the expression
bcl-2 expression (Western blot) (PERK-ATF4-CHOP pathway [6]; I/R injury): opposite of that of the bax and cleaved caspase 3
cleaved caspase 3 expression (Western blot) (PERK-ATF4-CHOP pathway [6]; I/R injury): decreases the expression
ATF4 expression level (Western blot) (PERK-ATF4-CHOP pathway [6]; [8]): reduced
CHOP expression level (Western blot) (PERK-ATF4-CHOP pathway [6]; [8]): reduced
GRP78 expression (Western blot) (PERK-ATF4-CHOP pathway [6]; [8]): consistent with the PERK-ATF4-CHOP pathway proteins
p-PERK expression level (Western blot) (PERK-ATF4-CHOP pathway [6]; [8]): reduced
ATF4 protein level (Western blot) (PERK-ATF4-CHOP pathway [2]; valdecoxib pretreatment): decrease the expression; also recorded: significantly reduces
CHOP protein level (Western blot) (PERK-ATF4-CHOP pathway [2]; valdecoxib pretreatment): decrease the expression; also recorded: significantly reduces
GRP78 protein level (Western blot) (PERK-ATF4-CHOP pathway [2]; valdecoxib pretreatment): decrease the expression; also recorded: significantly reduces
bax protein level (Western blot) (PERK-ATF4-CHOP pathway [2]; valdecoxib pretreatment): decreased; also recorded: significantly reduces
bcl-2 protein expression (Western blot) (PERK-ATF4-CHOP pathway [2]; valdecoxib pretreatment): opposite to that of the bax and cleaved caspase 3
cleaved caspase 3 protein level (Western blot) (PERK-ATF4-CHOP pathway [2]; valdecoxib pretreatment): decreased; also recorded: significantly reduces
p-PERK protein level (Western blot) (PERK-ATF4-CHOP pathway [2]; valdecoxib pretreatment): decrease the expression; also recorded: significantly reduces
TUNEL-positive RGCs [7]: reduced
